Columns and labels:
Assay type in all cases: binding
sheep anti-digoxin serum [1] = assay: assay of digoxin by mixed agglutination of Ab-latex and conjugate-latex, selective optical counting of unagglutinated particles; details: Table 3
sheep anti-digoxin serum [2] = assay: as above; details: Table 1
Description: This Example illustrates the assay of digoxin.
(§1) Latex particles (0.09μ diameter, polystyrene, Dow Chemical Co.) as a 10% by weight suspension as supplied) was diluted 20-fold in dilute glycine-buffered saline (dGBS-20 mM glycine, 34 mM NaCl, pH 9) containing 0.2 mg/ml of the Rivanol-soluble fraction (prepared by the method of Stastny and Horejsi, Clin. Chim. Acta (1961), 6, 782) of sheep anti-digoxin serum, and incubated at room temperature for 30 minutes. 1/10th volume of 10 mg bovine serum albumin (bSA) per ml. dGBS was then added (to ensure that the latex was completely coated with protein), and after a further 30 minutes incubation, the coated latex was washed twice by centrifugation and resuspended in dGBS. Finally, the coated latex was resuspended as a 0.5% suspension in GBS (0.1 M glycine, 0.17 M NaCl, pH 9) containing 1 mg bSA/ml.
(§2) The same procedure was followed as in (a) except that the latex used was of 1.1μ diameter and incubation was performed at an Ag-conjugate concentration of 4μg/ml, followed by the addition of 1/10 volume of 10 mg/ml transferrin. The Ag-conjugate was prepared by the oxidative coupling of digoxin and ethylene glycol followed by reductive coupling of this complex to the protein. 50 mg digoxin dissolved in 2 ml absolute alcohol was incubated for 25 minutes with 2 ml 0.1 M NalO4, then 60 μl of ethylene glycol was added for a further 5 minutes incubation. This reaction mixture was then added to a solution of 60 mg human transferrin in 2 ml water, brought to pH 9.5 by addition of 5% Na2 CO3, and incubated for 45 minutes. 30 mg NaBH4 freshly dissolved in 2 ml water was added and incubation was continued for 3 hours. At the end of this time, the pH of the reaction mixture was reduced to 6.5 by addition of 1 M HCOOH to destroy any unreacted NaBH4, and after a further hour of incubation, 1 M NH4 OH was added to raise the pH to 8.5, and the preparation was dialysed against running water for 2 days at 4° C. (all other operations were at room temperature).
(§3) Sera used for the assay of digoxin were first heated with acid to reduce serum intereference. 25 μl of serum was heated to 56° C. for 10 minutes with 25 μl of 0.1 N HCl, then made alkaline by the addition of 10 μl 2 M Na2 CO3. To these heated sera were added 25 μl of Ab-latex (diluted 1:10 with GBS containing 1 mg bSA/ml) and 25 μl of conjugate-latex (diluted 1:4 with GBS containing 1 mg human transferrin/ml). They were then incubated in vertically-positioned tubes agitated horizontally on a shaking incubator for 15 minutes at room temperature. At the end of this time, the tube contents were diluted with 5 ml GBS and after a further 20-fold dilution with GBS containing 0.01% Tween 20, passed through the flowcell of a Technicon Autocounter at 2 ml/min. The relative numbers of unagglutinated (monomer) latex particles in each sample were determined (as also may be the relative numbers of agglutinated particles) by selective optical counting.
In the selective optical counting of particles, the amount of light scattered by a particle is dependent on the size of the particle; in turn, the electronic impulse generated in the photocell will be proportional to the size of the particle, and particles of different sizes may be counted separately. Table 2 illustrates the improvement in precision of determination (by providing a more extended range for the standard curve) that may be obtained by counting only unagglutinated particles (monomers) as opposed to counting all particles (total). […]

sheep anti-digoxin serum [3] = assay: Example 3: digoxin mixed agglutination with equal-sized or different-sized latex
Description: as §1, §2, §3
Example 1 was repeated using latex particles of the same (as opposed to different) size and the following results were obtained: […]

sheep anti-digoxin serum [4] = assay: latex immunoassay of digoxin read by turbidimetry (optical density at 400 nm)
[5] = test system: rabbit anti-thyroxine (T4) serum; assay: assay of thyroxine by mixed agglutination; details: maximum = Ag-latex alone
Description: This Example illustrates the assay of thyroxine. […] After incubation at 0° for 1 hour, 250 μl of 25% ethanolamine in PBS was added, and the incubation prolonged for 30 minutes. The latex was then washed twice by centrifugation and resuspension in fresh PBS (1 ml each time), and then dialysed for 16 hours at 4° against 1 l PBS. […] The method of this latex preparation was exactly the same as for the assay of digoxin (Example 1) except that the Ab was from rabbit anti-thyroxine (T4) serum. […] The maximum value in this case was for the Ag-latex alone, all the above values being found in the presence of Ag-latex as well.

[6] = latex immunoassay of hPL, comparison of counting methods; details: 2.5 ngs hPL/ml
Excerpt: In the selective optical counting of particles, the amount of light scattered by a particle is dependent on the size of the particle; in turn, the electronic impulse generated in the photocell will be proportional to the size of the particle, and particles of different sizes may be counted separately. Table 2 illustrates the improvement in precision of determination (by providing a more extended range for the standard curve) that may be obtained by counting only unagglutinated particles (monomers) as opposed to counting all particles (total). The Table also illustrates the great increase in sensitivity that may be realized by calculating the ratio of unagglutinated to agglutinated particles (monomer/polymer ratio). By counting particles at all, an increase in sensitivity and precision may be realized by comparison with other methods of end-point determination.

C[C@H]1O[C@@H](O[C@H]2[C@@H](O)C[C@H](O[C@H]3[C@@H](O)C[C@H](O[C@H]4CC[C@@]5(C)[C@H](CC[C@@H]6[C@@H]5C[C@@H](O)[C@]5(C)[C@@H](C7=CC(=O)OC7)CC[C@]65O)C4)O[C@@H]3C)O[C@@H]2C)C[C@H](O)[C@@H]1O [Digoxin, digoxin]
Particle count (monomers) (sheep anti-digoxin serum [1]; digoxin 0.31 ng/ml in serum): 40 percentage of that found in th | Particle count (monomers) (sheep anti-digoxin serum [1]; digoxin 0.625 ng/ml in serum): 44 percentage of that found in th | Particle count (monomers) (sheep anti-digoxin serum [1]; digoxin 1.25 ng/ml in serum): 63 percentage of that found in th | Particle count (monomers) (sheep anti-digoxin serum [1]; digoxin 2.5 ng/ml in serum): 90 percentage of that found in th | Particle count (monomers) (sheep anti-digoxin serum [1]; digoxin 5.0 ng/ml in serum): 100 percentage of that found in th | Unagglutinated Particles (as % of maximum) (sheep anti-digoxin serum [2]; digoxin 0.31 ng/ml in serum): 40% | Unagglutinated Particles (as % of maximum) (sheep anti-digoxin serum [2]; digoxin 0.625 ng/ml in serum): 44% | Unagglutinated Particles (as % of maximum) (sheep anti-digoxin serum [2]; digoxin 1.25 ng/ml in serum): 63% | Unagglutinated Particles (as % of maximum) (sheep anti-digoxin serum [2]; digoxin 2.5 ng/ml in serum): 90% | Unagglutinated Particles (as % of maximum) (sheep anti-digoxin serum [2]; digoxin 5.0 ng/ml in serum): 100% | Unagglutinated Particles (as % of maximum) (sheep anti-digoxin serum [3]; Different-sized latex, digoxin 1 ng/ml in serum): 30% | Unagglutinated Particles (as % of maximum) (sheep anti-digoxin serum [3]; Different-sized latex, digoxin 4 ng/ml in serum): 76% | Unagglutinated Particles (as % of maximum) (sheep anti-digoxin serum [3]; Different-sized latex, digoxin 10 ng/ml in serum): 100% | Unagglutinated Particles (as % of maximum) (sheep anti-digoxin serum [3]; Equal-sized latex, digoxin 1 ng/ml in serum): 78% | Unagglutinated Particles (as % of maximum) (sheep anti-digoxin serum [3]; Equal-sized latex, digoxin 4 ng/ml in serum): 95% | Unagglutinated Particles (as % of maximum) (sheep anti-digoxin serum [3]; Equal-sized latex, digoxin 10 ng/ml in serum): 100% | Turbidity (sheep anti-digoxin serum [4]; digoxin 0.31 ng/ml in serum): 74 percentage of that found in th | Turbidity (sheep anti-digoxin serum [4]; digoxin 0.625 ng/ml in serum): 71 percentage of that found in th | Turbidity (sheep anti-digoxin serum [4]; digoxin 1.25 ng/ml in serum): 82 percentage of that found in th | Turbidity (sheep anti-digoxin serum [4]; digoxin 2.5 ng/ml in serum): 100 percentage of that found in th | Turbidity (sheep anti-digoxin serum [4]; digoxin 5.0 ng/ml in serum): 100 percentage of that found in th

N[C@@H](Cc1cc(I)c(Oc2cc(I)c(O)c(I)c2)c(I)c1)C(=O)O [T4, thyroxine]
Particle concentration (% maximum) ([5]; 10 ng T4/ml serum): 51.5% | Particle concentration (% maximum) ([5]; 50 ng T4/ml serum): 59.5% | Particle concentration (% maximum) ([5]; 200 ng T4/ml serum): 89%

B1: hPL: human placental lactogen (protein, UniProt P0DML2 27-217, looked up)
Chorionic somatomammotropin …: VQTVPLSRLFDHAMLQAHRAHQLAIDTYQEFEETYIPKDQKYSFLHDSQTSFCFSDSIPTPSNMEETQQKSNLELLRISLLLIESWLEPVRFLRSMFANNLVYDTSDSDDYHLLKDLEEGIQTLMGRLEDGSRRTGQILKQTYSKFDTNSHNHDALLKNYGLLYCFRKDMDKVETFLRMVQCRSVEGSCGF
Monomer/polymer ratio [6]: 81 percentage of that obtained in
